Experimental data as given in publication PMC5314971 (Bioorganic & medicinal chemistry letters, 2017).

Assays:
[1] = system: acetylated tubulin in B16F10 cells; assay: western blot for accumulation of acetylated tubulin in B16F10 cells; assay type: cell-based
B16F10 [2] = assay: antiproliferation study, B16F10 melanoma cell line
HDAC1 = HDAC1 (Homo sapiens, UniProt Q13547); assay: cell-free HDAC isoform inhibition assay, HDAC1
A375 = assay: antiproliferation study, A375 melanoma cell line; conditions: SAHA as control HDACi
B16F10 [3] = assay: verapamil; conditions: B16F10, verapamil at 100 µM, data not shown
[4] = phase II clinical trial; ref 3a; cited from earlier work
[5] = increasing drug concentrations (5–50 µM)

HDAC1, sequence (Q13547 whole entry, species assumed, canonical isoform): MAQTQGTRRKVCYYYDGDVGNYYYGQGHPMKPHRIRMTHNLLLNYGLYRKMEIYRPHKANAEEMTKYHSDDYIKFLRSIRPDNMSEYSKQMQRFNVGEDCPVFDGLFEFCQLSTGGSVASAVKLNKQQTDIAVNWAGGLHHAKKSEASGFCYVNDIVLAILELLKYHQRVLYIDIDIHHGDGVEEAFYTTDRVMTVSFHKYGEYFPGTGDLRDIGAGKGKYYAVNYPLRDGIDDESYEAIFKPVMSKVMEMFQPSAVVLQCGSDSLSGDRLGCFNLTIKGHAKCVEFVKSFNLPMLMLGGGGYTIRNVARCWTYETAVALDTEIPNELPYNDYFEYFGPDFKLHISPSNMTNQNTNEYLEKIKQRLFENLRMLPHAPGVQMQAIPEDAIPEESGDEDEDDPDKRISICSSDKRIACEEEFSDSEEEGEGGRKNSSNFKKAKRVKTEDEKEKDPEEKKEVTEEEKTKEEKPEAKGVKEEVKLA

O=C(CCCCCCC(=O)Nc1ccccc1)NO [SAHA, reference compound]
accumulation of acetylated tubulin ([1]; 20 µM): significant accumulation of acetylated tubulin

CCN(CC)CCNC(=O)c1ccc(C(=O)ONC(=O)CCCCCn2cc(-c3ccc4cc(OC)ccc4c3)nn2)cc1 [compound 14]
growth inhibitory effect compared with compound 10a (B16F10 [2]; B16F10, at 50 µM (Fig. 4)): much more potent than compound 10a | growth inhibitory effect compared with compound 10a (B16F10 [2]; B16F10, dosed at 25 µM (Fig. 4)): same level of potency as compound 10a | accumulation of acetylated tubulin [1, 5]: increase in the level of acetylated tubulin in a concentration dependent manner

COc1ccc2cc(-c3cn(CCCCCC(=O)NO)nn3)ccc2c1 [7u, reference compound]
accumulation of acetylated tubulin ([1]; 20 µM): significant accumulation of acetylated tubulin

CCN(CC)CCNC(=O)c1ccc(-c2cn(CCCCCCC(=O)NO)nn2)cc1 [10a]
fold less active relative to SAHA against B16F10 (B16F10 [2]; SAHA as control HDACi): about 3 fold | accumulation of acetylated tubulin [1, 5]: gave a similar effect | selectivity for HDAC1 compared to HDAC6 (HDAC1): about four-fold | fold less active relative to SAHA against A375 (A375): ~6 fold | effect of verapamil co-treatment on cytotoxic effect (B16F10 [3]): did not improve the cytotoxic effect

CCN(CC)CCNC(=O)c1ccc(-c2cn(CCCCCC(=O)NO)nn2)cn1 [11a]
selectivity for HDAC1 compared to HDAC6 (HDAC1): almost indistinguishable

CCN(CC)CCNC(=O)c1ccc(-c2cn(CCCCCCC(=O)NO)nn2)cn1 [11b]
effect of verapamil co-treatment on cytotoxic effect (B16F10 [3]): did not improve the cytotoxic effect

CCN(CC)CCNC(=O)c1ccc(I)cc1 [N-(2-(diethylamino)ethyl)-4-iodobenzamide]
toxicity to the patients [4]: little toxicity
